Test system: subjects with insomnia related to major depressive disorder
Test: DREAMDD clinical study: Hamilton Depression Rating Scale (HAMD17)
Format: in vivo, human
Protocol: The change from baseline to each double-blind, post-treatment visit in the HAM-D-17 score as well as the change from baseline to each double-blind, weekly, post-treatment assessments in the HAM-D-6 (Bech) scores and HAM-D-6 (Maier) scores was presented descriptively (n, mean, median, standard deviation, minimum, 25th percentile, median, 75th percentile, and maximum) by treatment. Treatment comparisons were performed at each assessed time point. The analysis compared the eszopiclone 3 mg group to placebo using an analysis of variance model (ANOVA) with treatment and site as fixed effects. The analysis was performed using the SAS MIXED procedure.
Hamilton Depression Rating Scale (HAM-D17): During this analysis, a medical professional evaluates the patient according to seventeen criteria by selecting the response that best characterizes the patient's behavior during the past week. The criteria and responses are based on that described in Br. J. Soc. Clin. Psychol. 6: 278-296 (1967) and are reproduced below. Question 1: Depressed mood (Sadness, hopeless, helpless, worthless); Response: 0—Absent, 1—These feeling states indicated only on questioning, 2—These feeling states spontaneously reported verbally, 3—Communicates feeling states non-verbally i.e., through facial expression, posture, voice, and tendency to weep, or 4—Patient report virtually only these feeling states in their spontaneous verbal and non-verbal communication. Question 2: Feeling of guilt; Response: 0—Absent, 1—Self reproach, feels they have let people down, 2—Ideas of guilt or rumination over past errors or sinful deeds, 3—Present illness is a punishment and/or has delusions of guilt, or 4—Hears accusatory or denunciatory voices and/or experiences threatening visual hallucinations. Question 3: Suicide; Response: 0—Absent, 1—Feels life is not worth living, 2—Wishes they were dead or any thoughts of possible death to self, 3—Suicide ideas or gesture, 4-Attempts at suicide (any serious attempt rates 4). Question 4: Insomnia early; Response: 0—No difficulty falling asleep; 1—Complains of occasional difficulty falling asleep—i.e., more than ½ hour; or 2—complains of nightly difficulty falling asleep. Question 5: Insomnia middle; Response: 0—No difficulty, 1—patient complains of being restless and disturbed during the night, or 2—Waking during the night—any getting out of bed rates 2 (except for purposes of voiding). Question 6: Insomnia Late; Response: 0—No difficulty, 1—Waking in early hours of the morning but goes back to sleep, or 2—Unable to fall asleep again if they get out of bed. […] Question 8: Retardation (Slowness of thought and speech; impaired ability to concentrate; decreased motor activity); Response: 0—Normal speech and thought, 1—Slight retardation at interview, 2—Obvious retardation at interview, 3—Interview difficult, or 4—Complete stupor. Question 9: Agitation; Response: 0—None; 1—Fidgetiness; 2—Playing with hands, hair, etc.; 3—Moving about, can't sit still; or 4—Hand wringing, nail biting, hair-pulling, biting of lips. Question 10: Anxiety psychic: 0—No difficulty, 1—Subjective tension and irritability, 2—Worrying about minor matters, 3—Apprehensive attitude apparent in face or speech, or 4—Fears expressed without questioning. Question 11: Anxiety somatic (Physiological concomitants of anxiety, such as:—Gastro-intestinal: dry mouth, wind, indigestion, diarrhea, cramps, belching.—Cardio-vascular: palpitations, headaches.—Respiratory: hyperventilation, sighing.—Urinary frequency—Sweating); Response: 0—Absent, 1—Mild, 2—Moderate, 3—Severe, or 4—Incapacitating. Question 12: Somatic symptoms gastro-intestinal; Response: 0—None, 1—Loss of appetite but eating without staff encouragement and/or heavy feelings in abdomen; or 2—Difficulty eating without staff urging and/or requests or requires laxatives or medication for bowels or medication for gastro-intestinal symptoms. […]

CN1CCN(C(=O)OC2c3nccnc3C(=O)N2c2ccc(Cl)cn2)CC1 (single isomer, unassigned; (+)) [Eszopiclone, (+) 6-(5-chloro-2-pyridinyl)-6,7-dihydro-7-oxo-5H-pyrrolo[3,4b]pyrazin-5-yl 4-methylpiperazine-1-carboxylate]
HAMD 17 differences in patients with more severe depression (baseline HAMD 17≧22) (3 mg nightly + fluoxetine vs placebo): greater
changes in HAMD17 scores (Week 4, p=0.02 vs placebo, 3 mg nightly + fluoxetine 20 mg QAM): −9.9
changes in HAMD17 scores (Week 8, p<0.001 vs placebo, 3 mg nightly + fluoxetine): −13.8
responders (50% decrease from baseline HAMD17) (Week 8, p<0.009 vs placebo, 3 mg nightly + fluoxetine): 74%
remitters (HAMD17≦7) (Week 8, p<0.02 vs placebo, 3 mg nightly + fluoxetine): 54%
HAMD17 with removal of insomnia items, versus placebo (Week 8, p<0.03, 3 mg nightly + fluoxetine): significant differences
augmentation effect versus agents currently used for augmentation therapy, such as lithium (co-administration with fluoxetine): larger
augmentation effect by severity of depression (end of the 8 week treatment period): most pronounced in the most severely depressed patients
